Laboratory results: patent publication US8299056B2 (Signal Pharmaceuticals, LLC, priority 2008, dated 2012)

biological target: T1, Syk (Homo sapiens, UniProt P43405); experiment: Syk HTRF assay; type: biochemical; settings: IC50 activity level, read-out: Activity Level
T1 construct: purchased Carna Biosciences
Method in brief: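 HTRF kinase assay in HEPES pH 7.6 buffer with MgCl2, DTT and Triton X100; start mix of 87.5 μM ATP and 80 nM biotinylated peptide, 1 h at room temperature. EDTA stop, then Eu-anti-phosphotyrosine/streptavidin-DyLight 647 detection, read as 665/615 nm emission ratio.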

First: OC(c1cccc2nc(Nc3ccccc3)nn12)C1CCNCC1 (centres unmarked) [Example 502, (2-(phenylamino)-[1,2,4]triazolo[1,5-a]pyridin-5-yl)(piperidin-4-yl)methanol]
Second: c1ccc(Nc2nc3cccc(CC4CCNCC4)n3n2)cc1 [Example 482, N-phenyl-5-(piperidin-4-ylmethyl)-[1,2,4]triazolo[1,5-a]pyridin-2-amine]
The IC50 of the first is higher: 250 to 500 nM for the first, 0.005 to 250 nM for the second. The second is the more potent here.

First: c1ccc(Nc2nc3cccc(-c4ccc5[nH]ncc5c4)n3n2)cc1 [Example 522, 5-(1H-indazol-5-yl)-N-phenyl-[1,2,4]triazolo[1,5-a]pyridin-2-amine]
Second: Nc1n[nH]c2cc(-c3cccc4nc(Nc5ccccc5)nn34)ccc12 [Example 439, 5-(3-amino-1H-indazol-6-yl)-N-phenyl-[1,2,4]triazolo[1,5-a]pyridin-2-amine]
The IC50 of the first is higher: 500 to 1000 nM for the first, 0.005 to 250 nM for the second. The second is the more potent here.

Cn1ncc2cc(Nc3nc4cccc(CC5CCOCC5)n4n3)ccc21 [Example 550, N-(1-methyl-1H-indazol-5-yl)-5-((tetrahydro-2H-pyran-4-yl)methyl)-[1,2,4]triazolo[1,5-a]pyridin-2-amine] and Cn1ncc2ccc(Nc3nc4cccc(N[C@H]5CCCNC5)n4n3)cc21 [Example 466, (S)-N^2-(1-methyl-1H-indazol-6-yl)-N^5-(piperidin-3-yl)-[1,2,4]triazolo[1,5-a]pyridine-2,5-diamine] fall in the same range of IC50: 0.005 to 250 nM for the first, 0.005 to 250 nM for the second.

Compared with CCN1CCC(Cc2cccc3nc(Nc4ccc(C(F)(F)F)cc4)nn23)CC1 [Example 407, 5-((1-ethylpiperidin-4-yl)methyl)-N-(4-(trifluoromethyl)phenyl)-[1,2,4]triazolo[1,5-a]pyridin-2-amine], NC(=O)[C@H]1CC[C@H](Oc2cccc3nc(Nc4ccc(C(F)(F)F)cc4)nn23)CC1 (stereo in doubt) [Example 405, trans-4-(2-(4-(trifluoromethyl)phenylamino)-[1,2,4]triazolo[1,5-a]pyridin-5-yloxy)cyclohexanecarboxamide] is higher in IC50: 500 to 1000 nM for the first, 1000 to 10000 nM for the second.

Compared with NCCOc1cc(Nc2nc3cccc(NC4CCCNC4)n3n2)ccn1 (stereo in doubt) [Example 404, (S)-N^2-(2-(2-aminoethoxy)pyridin-4-yl)-N^5-(piperidin-3-yl)-[1,2,4]triazolo[1,5-a]pyridine-2,5-diamine], NC(=O)[C@H]1CC[C@@H](Nc2cccc3nc(Nc4ccccc4)nn23)CC1 [Example 519, cis-4-(2-(phenylamino)-[1,2,4]triazolo[1,5-a]pyrridin-5-ylamino)cyclohexanecarboxamide] is higher in IC50: 0.005 to 250 nM for the first, 1000 to 10000 nM for the second. The first is the more potent here.

Work on c1ccc(Cc2cccc3nc(Nc4ccccc4)nn23)cc1 [Example 506, 5-benzyl-N-phenyl-[1,2,4]triazolo[1,5-a]pyridin-2-amine] yielded an IC50 of 1000 to 10000 nM.

same assay, conditions: activity levels A-D, read-out: Activity Level (IC50 in the Syk HTRF assay)

First: C[C@]1(O)CC[C@H](Nc2cccc3nc(Nc4ccc(C(F)(F)F)cc4)nn23)CC1 [Example 384, cis-1-methyl-4-(2-(4-(trifluoromethyl)phenylamino)-[1,2,4]triazolo[1,5-a]pyridin-5-ylamino)cyclohexanol]
Second: CO[C@H]1CC[C@@H](N(C)c2cccc3nc(Nc4ccc(C(F)(F)F)cc4)nn23)CC1 [Example 265, cis-N^5-(4-methoxycyclohexyl)-N^5-methyl-N^2-(4-(trifluoromethyl)phenyl)-[1,2,4]triazolo[1,5-a]pyridine-2,5-diamine]
The IC50 of the first is lower: 0.005 to 250 nM for the first, 1000 to 10000 nM for the second.

Compared with NC(=O)c1cc(Nc2nc3cccc(N[C@H]4CC[C@@H](O)CC4)n3n2)ccc1F [Example 318, cis-2-fluoro-5-(5-(4-hydroxycyclohexylamino)-[1,2,4]triazolo[1,5-a]pyridin-2-ylamino)benzamide], NC(=O)c1ccc(Nc2nc3cccc(N[C@H]4CC[C@@H](O)CC4)n3n2)cc1F [Example 347, cis-2-fluoro-4-(5-(4-hydroxycyclohexylamino)-[1,2,4]triazolo[1,5-a]pyridin-2-ylamino)benzamide] is lower in IC50: 1000 to 10000 nM for the first, 0.005 to 250 nM for the second.

First: COCCOc1cc(Nc2nc3cccc(N[C@H]4CC[C@@H](O)CC4)n3n2)ccc1F [Example 210, cis-4-(2-(4-fluoro-3-(2-methoxyethoxy)phenylamino)-[1,2,4]triazolo[1,5-a]pyridin-5-ylamino)cyclohexanol]
Second: NC(=O)c1ccc(Nc2nc3cccc(N[C@H]4CC[C@@H](O)CC4)n3n2)cn1 [Example 370, cis-5-(5-(4-hydroxycyclohexylamino)-[1,2,4]triazolo[1,5-a]pyridin-2-ylamino)picolinamide]
The IC50 of the first is lower: 0.005 to 250 nM for the first, 500 to 1000 nM for the second.

Compared with CNC(=O)c1ccc(Nc2nc3cccc(N[C@H]4CC[C@H](O)CC4)n3n2)cc1 (stereo in doubt) [Example 387, trans-4-(5-(4-hydroxycyclohexylamino)-[1,2,4]triazolo[1,5-a]pyridin-2-ylamino)-N-methylbenzamide], CC1(C)C(=O)Nc2cc(Nc3nc4cccc(N[C@H]5CC[C@@H](O)CC5)n4n3)ccc21 [Example 202, cis-6-(5-(4-hydroxycyclohexylamino)-[1,2,4]triazolo[1,5-a]pyridin-2-ylamino)-3,3-dimethylindolin-2-one] is lower in IC50: 1000 to 10000 nM for the first, 0.005 to 250 nM for the second. The second is the more potent here.

OC1CCCN(Cc2cccc3nc(Nc4ccc(C(F)(F)F)cc4)nn23)C1 (stereo in doubt) [Example 299, (R)-1-((2-(4-(trifluoromethyl)phenylamino)-[1,2,4]triazolo[1,5-a]pyridin-5-yl)methyl)piperidin-3-ol] and OC[C@@H]1CCCN1c1cccc2nc(Nc3ccc(C(F)(F)F)cc3)nn12 [Example 289, (S)-(1-(2-(4-(trifluoromethyl)phenylamino)-[1,2,4]triazolo[1,5-a]pyridin-5-yl)pyrrolidin-2-yl)methanol] fall in the same range of IC50: 1000 to 10000 nM for the first, 1000 to 10000 nM for the second.

First: OCC1CN(c2cccc3nc(Nc4ccc(C(F)(F)F)cc4)nn23)C1 [Example 259, (1-(2-(4-(trifluoromethyl)phenylamino)-[1,2,4]triazolo[1,5-a]pyridin-5-yl)azetidin-3-yl)methanol]
Second: OCC1CCN(c2cccc3nc(Nc4ccc(C(F)(F)F)cc4)nn23)CC1 [Example 346, (1-(2-(4-(trifluoromethyl)phenylamino)-[1,2,4]triazolo[1,5-a]pyridin-5-yl)piperidin-4-yl)methanol]
The IC50 of the first is lower: 0.005 to 250 nM for the first, 1000 to 10000 nM for the second. The first is the more potent here.

Nc1n[nH]c2cc(Nc3nc4cccc(CC5CCC(O)CC5)n4n3)ccc12 (centres unmarked) [Example 208, 4-((2-(3-amino-1H-indazol-6-ylamino)-[1,2,4]triazolo[1,5-a]pyridin-5-yl)methyl)cyclohexanol] and CNC(=O)c1ccc(Nc2nc3cccc(CC4CCNCC4)n3n2)cc1 [Example 276] fall in the same range of IC50: 0.005 to 250 nM for the first, 0.005 to 250 nM for the second.

First: CC1C(=O)NCCN1Cc1cccc2nc(Nc3ccc(C(F)(F)F)cc3)nn12 (stereo in doubt) [Example 275, (S)-3-methyl-4-((2-(4-(trifluoromethyl)phenylamino)-[1,2,4]triazolo[1,5-a]pyridin-5-yl)methyl)piperazin-2-one]
Second: FC(F)(F)c1ccc(Nc2nc3cccc(OC[C@H]4CCCN4)n3n2)cc1 [Example 302, (R)-5-(pyrrolidin-2-ylmethoxy)-N-(4-(trifluoromethyl)phenyl)-[1,2,4]triazolo[1,5-a]pyridin-2-amine]
The IC50 of the first is lower: 0.005 to 250 nM for the first, 1000 to 10000 nM for the second. The first is the more potent here.

Compared with O[C@H]1CC[C@@H](Nc2cccc3nc(Nc4ccnc(NCCN5CCCC5)c4)nn23)CC1 [Example 278, cis-4-(2-(2-(2-(pyrrolidin-1-yl)ethylamino)pyridin-4-ylamino)-[1,2,4]triazolo[1,5-a]pyridin-5-ylamino)cyclohexanol], OC[C@H]1CCCN1c1cccc2nc(Nc3ccc(C(F)(F)F)cc3)nn12 [Example 288, (R)-(1-(2-(4-(trifluoromethyl)phenylamino)-[1,2,4]triazolo[1,5-a]pyridin-5-yl)pyrrolidin-2-yl)methanol] is higher in IC50: 0.005 to 250 nM for the first, 250 to 500 nM for the second. The first is the more potent here.

With CNC(=O)c1ccc(Nc2nc3cccc(-c4cccnc4)n3n2)cc1 [Example 325, N-methyl-4-(5-(pyridin-3-yl)-[1,2,4]triazolo[1,5-a]pyridin-2-ylamino)benzamide] the IC50 was 500 to 1000 nM.

same assay, conditions: read-out: Activity Level (Syk HTRF assay IC50)

First: Cc1n[nH]c2cc(Nc3nc4cccc(Cc5cc[nH]c(=O)c5)n4n3)ccc12 [Example 183, 4-((2-(3-methyl-1H-indazol-6-ylamino)-[1,2,4]triazolo[1,5-a]pyridin-5-yl)methyl)pyridin-2(1H)-one]
Second: Cc1n[nH]c2cc(Nc3nc4cccc(N[C@H]5CCOC5)n4n3)ccc12 [Example 182, (S)-N^2-(3-methyl-1H-indazol-6-yl)-N^5-(tetrahydrofuran-3-yl)-[1,2,4]triazolo[1,5-a]pyridin-2,5-diamine]
The IC50 of the first is lower: 0.005 to 250 nM for the first, 250 to 500 nM for the second. The first is the more potent here.

COCc1nc2ccc(Nc3nc4cccc(Cc5ccnc(O)c5)n4n3)cc2[nH]1 [compound 130] and CN(CCO)c1cccc2nc(Nc3ccc4c(c3)NC(=O)C4(C)C)nn12 [Example 153, 6-(5-((2-hydroxyethyl)(methyl)amino)-[1,2,4]triazolo[1,5-a]pyridin-2-ylamino)-3,3-dimethylindolin-2-one] fall in the same range of IC50: 0.005 to 250 nM for the first, 0.005 to 250 nM for the second.

First: CC1(C)C(=O)Nc2cc(Nc3nc4cccc(CC5CCOCC5)n4n3)ccc21 [Example 176, 3,3-dimethyl-6-(5-((tetrahydro-2H-pyran-4-yl)methyl)-[1,2,4]triazolo[1,5-a]pyridin-2-ylamino)indolin-2-one]
Second: O=C1Cc2ccc(Nc3nc4cccc(N[C@H]5CC[C@@H](O)CC5)n4n3)cc2N1CCO [Example 185, cis-6-(5-(4-hydroxycyclohexylamino)-[1,2,4]triazolo[1,5-a]pyridin-2-ylamino)-1-(2-hydroxyethyl)indolin-2-one]
The IC50 of the first is lower: 0.005 to 250 nM for the first, 250 to 500 nM for the second. The first is the more potent here.

First: O[C@H]1CC[C@@H](Nc2cccc3nc(Nc4cnc5cn[nH]c5c4)nn23)CC1 [compound 107]
Second: CC(=O)Nc1ccc(-c2cccc3nc(Nc4ccccc4)nn23)cc1 [compound 79, N-(4-(2-(phenylamino)-[1,2,4]triazolo[1,5-a]pyridin-5-yl)phenyl)acetamide]
The IC50 of the first is lower: 0.005 to 250 nM for the first, 250 to 500 nM for the second. The first is the more potent here.
